Measurements: patent publication US6258837A, “Neuropeptide Y receptor antagonist” (Banyu Pharmaceutical Co., Ltd., priority 1997, dated 2001)

Key:
SD male rats [1] = assay: acute toxicity test; format: in vivo, rat; details: 500 mg/kg oral
Description: A compound to be tested in an amount of 500 mg/kg was orally administered to each of SD male rats (10-week-old; 300 to 400 g). After immediately, 5 minutes, 30 minutes, 1 hour, 2 hours, 4 hours, 6 hours, 8 hours and 24 hours from the administration, the condition of each rat was observed. And, after 24 hours from the administration, the rat was killed by dehematizing via carotid artery and then laparotomized in order to observe the presence or absence of any change in abdominal organs by the naked eye. In this connection, the compound to be tested was administered in a dose of 5 ml/kg after suspending in a 0.5% aqueous methyl cellulose solution.

SD male rats [2] = assay: test of inhibition of feeding behavior induced by bPP; format: in vivo, rat; details: oral, one hour before bPP (5 μg/head/10 μl, lateral cerebral ventricle); food intake during two hours
Description: Under pentobarbital anesthesia (single intraperitoneal injection of 50 mg/kg), a chronic guide cannula (outer diameter 0.8 mm; inner diameter 0.5 mm; length 10 mm) was stereotactically inserted in a right lateral cerebral ventricle of each of SD male rats (7 to 8-week-old; 200 to 300 g) and fixed using a dental resin. A tip of the guide cannula was positioned 0.9 mm behind a bregma, 1.2 mm at the right of a median line and in the depth of 1.5 mm from the brain surface. An inner needle was inserted such that its tip projected from the tip of the guide cannula by about 2 mm and arrived to a lateral cerebral ventricle. After a recovery period of about one week, a bovine pancreatic polypeptide (bpp, 5 μg/head/10 μl) was administered to the lateral cerebral ventricle. A compound to be tested was orally administered one hour before the administration of bpp and food intake during two hours from the administration was measured. In this connection, the compound to be tested was administered after dissolving in a 0.5% aqueous methyl cellulose solution and bpp was administered after dissolving in 10 mM phosphate buffered saline.

human NPY Y5 receptor = biological target: T1, human NPY Y5 receptor (Homo sapiens, UniProt Q15761); assay: test of inhibition of NPY binding ([125I]peptide YY binding to membranes of cells expressing the NPY Y5 receptor)
T1 construct: expressed in transfected cells; host or cells: COS-7, CHO and LM(tk-)
T1 sequence (Q15761 1-445): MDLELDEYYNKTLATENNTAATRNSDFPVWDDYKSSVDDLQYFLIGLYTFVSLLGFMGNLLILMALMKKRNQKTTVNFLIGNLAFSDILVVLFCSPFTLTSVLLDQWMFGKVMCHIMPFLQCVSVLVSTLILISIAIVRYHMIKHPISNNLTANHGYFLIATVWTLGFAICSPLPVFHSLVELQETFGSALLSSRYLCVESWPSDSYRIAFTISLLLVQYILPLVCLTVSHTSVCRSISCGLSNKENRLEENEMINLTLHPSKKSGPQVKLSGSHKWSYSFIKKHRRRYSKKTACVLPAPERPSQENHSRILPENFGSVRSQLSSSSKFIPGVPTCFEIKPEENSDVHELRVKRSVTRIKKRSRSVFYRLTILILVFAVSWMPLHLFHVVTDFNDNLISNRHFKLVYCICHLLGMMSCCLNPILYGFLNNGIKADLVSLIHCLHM
Source text: cDNA Sequence encoding a human NPY Y5 receptor [International Publication WO 96/16542] was cloned into expression vectors pcDNA3, pRc/RSV (manufactured by Invitrogen) and pCI-neo (manufactured by Promega). Using the cationic lipid method [see Proceedings of the National Academy of Science of the United States of America, vol.84, p.7413 (1987)], host cells COS-7, CHO and LM(tk-) (American Type Culture Collection) were transfected with the thus prepared expression vectors to obtain cells in which the NPY Y5 receptor had been expressed.
After washing with 50 mM Tris buffer, pH 7.4, containing 0.3% BSA, radioactivity on the glass filter was measured using a gamma counter. Non-specific binding was measured in the presence of 1 μM of peptide YY to calculate a concentration of each compound to be tested which concentration is needed to inhibit 50% of the specific binding of the peptide YY (IC50 value) [see Endocrinology, vol.131, p.2090 (1992)].

In the case of `CC1(C)CC(=O)C(C2C3=C(CC(C)(C)CC3=O)Oc3ccccc32)C(=O)C1` (racemic) [compound [I], 3,3-dimethyl-9-(4,4-dimethyl-2,6-dioxo-cyclohexyl)-1-oxo-1,2,3,4-tetrahydroxanthene], the “change in abdominal organs observed by the naked eye (acute toxicity)” value (SD male rats [1]; 24 hours after administration) is reported as “abdominal organs were observed to be unchanged”, the “general health of each rat (acute toxicity)” value (SD male rats [1]; until 24 hours after administration) is reported as “no abnormality in general health of each rat was observed” and the “inhibition of the increase in food intake induced by bPP” value (SD male rats [2]) is reported as “significantly inhibits the increase in food intake”. The IC50 (human NPY Y5 receptor; [125I] peptide YY, 25° C., 2 hours, pH 7.4, membrane preparations, read-out: concentration needed to inhibit 50% of the specific binding of the peptide YY (IC50 value)) was 27 nM and the “inhibition of the binding of the peptide YY to the NPY Y5 receptor (in words)” value (human NPY Y5 receptor; peptide YY (a homologue of NPY)) was “strongly inhibited the binding”.
